The text below walks through data of US9365851B2, “Spalt-like transcription factor 4 (SALL4) and uses thereof” (National University of Singapore, priority 2011, dated 2016).

pIC50: −log10 of the molar value. Like-named read-outs stand apart in the source and are kept apart here.

Test [1] has as its target T1, HDAC complex (Homo sapiens, UniProt Q09028).
T1 construct: endogenous in cells; host or cells: SNU-398 nuclear extract
The test can be described thus: Fluorescent polarization competitive binding in SNU-398 nuclear extracts. The following applies: unlabeled peptide competing with FITC-labeled peptide. The protocol: Below are the amino acid sequences of the peptides used in this study. In the mutant peptide (mut), Lys 5 is replaced with an alanine residue. […] In the first lane marked “Input”, 10% of the extracts were subjected to western blot analysis without immunoprecipitation. […] Extracts were subsequently immunoprecipitated with anti-FITC antibody and the complexes pulled down were subjected to an HDAC activity assay as described in the methods. TSA was added at a concentration of 100 nM. Input is the sample in which 10% of the extract was assayed for HDAC activity without the immunoprecipitation step. […] Competitive binding of nonlabeled wild type or scrambled peptides was measured by fluorescent polarization. […] The fluorescent polarization (y axis) is decreased if the FITC-labeled peptide is displaced from a larger complex.
Next tested was the binding affinity of the wild type and scrambled peptides to the HDAC complex. For this, Fluorescent Polarization (FP), a technology based on molecular movement and rotation in which fluorescent molecules are excited with polarized light, was used. If the fluorescent molecules are part of a large complex, they rotate less and the emitted light has high polarity. In contrast, smaller molecules rotate faster and have low polarity (“depolarized”). […] Using this approach, FITC-labeled wild type or scrambled peptides were first mixed with nuclear extracts from SNU-398 cells. Serial dilutions of unlabeled wild type or scrambled peptides were then added as competitors respectively, and measured by FP assay.

Test [2] relates to MCF7 cells. As to the kind of experiment: Cell viability assay (MTT). The following applies: MCF7, 48-72 h. Format: cell-based. On the procedure:
(§1) Cell viability assay (MTT) (Invitrogen) was performed according to the manufacturer's instructions. Briefly—10000 cells were seeded in 100 ul medium in 96 well plates. The next day cells were treated as indicated on the figures. At the designated time after the treatment 20 ul of 5 mg/ml MTT solution was added to each well. After 3.5 h incubation at 37 C the medium was removed and the reaction was terminated with a solution of 4 mM HCl, 0.1% Nondet P-40 (NP40) all in isopropanol in dark on orbital shaker for […]. at room temperature. The absorbance was read at 590 nm with a reference filter of 620 nm in Spectromax M3 (ABI) spectrophotometer.
Multiple cell lines with or without SALL4 expression were chosen to test the biological effect(s) of this wt peptide. Wt or its control (Scr or Mut) peptide was delivered into tumor cells at various concentrations, and their effects on cells were evaluated at 48 or 72 hours post treatment by a MTT assay (Manufacture name). […] Since, as proposed herein, wt peptide can compete with SALL4 and release it from recruiting HDAC complex NuRD, the wt peptide would likely work as a HDAC inhibitor. Therefore, as a positive control, TSA, a broad HDAC inhibitor, was used in the same group of experiments along with the wt and Scr peptide.

Test [3] relates to HuH-7 cells. The test can be described thus: Cell viability assay (MTT/MTS). Format: cell-based, human. The following applies: HuH-7, 72 h. The protocol:
as §1
Multiple leukemic and solid tumor cancer cell lines with high or low/no SALL4 expression (FIG. 10A) were chosen to test the biological effect(s) of the wild type peptide. Wild type or scrambled peptide was delivered into tumor cells at various concentrations, and their effects on cells were evaluated 72 hours post-treatment by the MTS cell viability assay. […] The effect of wild type peptide is SALL4-specific, as it had no effect on KBM5, an AML cell line with undetectable endogenous SALL4 expression. We were surprised to see that the wild type peptide had no effect on a high SALL4-expressing endometrioid cancer cell line, AN3CA. This prompted checking whether PTEN, a gene repressed by SALL4 through its interaction with NuRD 27, was present in this cell line. According to the model herein, the function of wild type peptide requires both the expression of SALL4 and intact SALL4 downstream target genes, such as PTEN. In tumor cells with PTEN deletion, even though wild type peptide could compete with endogenous SALL4 in interacting with the HDAC complex, an anti-proliferative effect might not be observed. Therefore, expression of PTEN was evaluated in AN3CA cells along with other cell lines. […]
7000 cells were seeded in each wells of a microtiter plate in 100 μL of complete medium. […] After four hours incubation of the tetrazolium salt, absorbance at 490 nm was read by a microplate reader.

Test [4] has as its system KBM5 cells. As to the kind of experiment: MTS cell viability assay. The following applies: KBM5 (no SALL4), 72 h. Format: cell-based. On the procedure: (§2) Multiple leukemic and solid tumor cancer cell lines with high or low/no SALL4 expression (FIG. 10A) were chosen to test the biological effect(s) of the wild type peptide. Wild type or scrambled peptide was delivered into tumor cells at various concentrations, and their effects on cells were evaluated 72 hours post-treatment by the MTS cell viability assay. […] The effect of wild type peptide is SALL4-specific, as it had no effect on KBM5, an AML cell line with undetectable endogenous SALL4 expression. We were surprised to see that the wild type peptide had no effect on a high SALL4-expressing endometrioid cancer cell line, AN3CA. This prompted checking whether PTEN, a gene repressed by SALL4 through its interaction with NuRD 27, was present in this cell line. According to the model herein, the function of wild type peptide requires both the expression of SALL4 and intact SALL4 downstream target genes, such as PTEN. In tumor cells with PTEN deletion, even though wild type peptide could compete with endogenous SALL4 in interacting with the HDAC complex, an anti-proliferative effect might not be observed. Therefore, expression of PTEN was evaluated in AN3CA cells along with other cell lines. While PTEN protein was present in all the other cell lines, it was absent in AN3CA cells (FIG. 10C), with reported deletion mutation of the gene in this cell line 40,41. […] Furthermore, the anti-proliferative effect also required certain downstream targets, such as PTEN.
(§3) To further test whether the effect of wild type peptide on tumor cells is related to PTEN, a PTEN inhibitor (SF1670) was used (Li et al., Blood, 117:6702-6713). […] As a control for the specificity of SALL4, KBM5, a non-SALL4-expressing cell line was also treated with PTEN inhibitor.

The test system of test [5] is THP1 cells. The test can be described thus: MTS cell viability assay. Particulars: THP1, 72 h. Format: cell-based. The protocol:
as §2, §3
(In general: Tetrazolium assays rely on reduction of a dye to a coloured formazan, in cell work by metabolically active cells.)

Test [6] has as its system PC9 cells. As to the kind of experiment: Peptide treatment of lung cancer cells. Format: cell-based. The text has this: 56B: Cell image after SALL4 knockdown in H522 cells.
A small peptide has been generated to block the oncogenic function of SALL4. […] Therefore, shown herein is that SALL4 plays a crucial role in tumor initiation and development of NSCLC, and targeting SALL4 may provide an innovated therapeutic approach in the treatment of lung cancer.

T1 sequence (Q09028 whole entry, one chain of several): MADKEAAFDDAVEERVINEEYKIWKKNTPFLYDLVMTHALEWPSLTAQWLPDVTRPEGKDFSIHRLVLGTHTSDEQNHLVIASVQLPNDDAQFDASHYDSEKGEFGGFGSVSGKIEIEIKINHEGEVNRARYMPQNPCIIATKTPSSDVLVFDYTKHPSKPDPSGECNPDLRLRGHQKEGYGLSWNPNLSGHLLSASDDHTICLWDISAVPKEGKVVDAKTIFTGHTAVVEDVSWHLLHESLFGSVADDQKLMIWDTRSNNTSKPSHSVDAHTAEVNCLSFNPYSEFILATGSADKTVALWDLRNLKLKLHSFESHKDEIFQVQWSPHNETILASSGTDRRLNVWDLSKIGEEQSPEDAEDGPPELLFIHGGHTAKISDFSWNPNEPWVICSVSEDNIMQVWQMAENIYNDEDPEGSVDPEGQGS

The term pIC50 denotes the IC50 on a negative log10 scale, so that one unit is a factor of ten. Consider “H-MSRRKQAKPQHI-OH [wt peptide, MSRRKQAKPQHI]”, for which, in test [1] (read-out: IC50), the pIC50 was 5.30. Also, the cell viability entry is on record as “decreased cell viability” in test [2]; “displayed the same effect” in test [2] (listed as wild type peptide); “reduced the cell viability” in test [3]; “decreased cell viability” in test [3] (listed as wild type peptide); “no change in cell viability” in test [4] (listed as wild type); “had no effect” in test [4] (listed as wild type peptide). Besides, the cell viability result in test [5] was “decreased cell viability”. Also, the “cell growth / cell death” value in test [6] (listed as Wt) is on record as “cell growth arrest”; in test [6] (listed as small peptide) it was “resulted in cell death”.

For “Scr peptide: same 12 amino acids as the wt peptide, but in a scrambled sequence; negative control (SRMRQKIHPKIQ) [reference compound]”, the IC50 entry in test [1] is “could not be calculated due to the lack of binding activity”. Further, the cell viability entry in test [2] was “remained unaffected”; in test [3] it was “remained unaffected”; in test [4], “no change in cell viability”; in test [5] it was “remained unaffected”. Further, the “cell growth / cell death” value in test [6] was “no effect on the cells”.
